Where two headings read alike, the source gives them in different places.
How the values were obtained:
IDH1 R132H = target: T1, IDH1 R132H (Homo sapiens, UniProt O75874, R132H); experiment: Mutant IDH1 enzyme assay (diaphorase/resazurin), IDH1 R132H; format: biochemical; conditions: for IC50: mean ± SD of at least three determinations
T1 construct: purchased BPS Bioscience BPS-79376
Experimental: (§1) The amount of NADPH remaining at the end of the reaction time is measured in a secondary diaphorase/resazurin reaction in which the NADPH is consumed in a 1:1 molar ratio with the conversion of resazurin to the highly fluorescent resorufin. […] For inhibition assays, triplicate samples of the compounds in the concentration range from 10^−5 to 10^−10 M were incubated with the enzyme for 30 min prior to addition of α-KG and NADPH to initiate the reaction. The reaction ran for 60 min at room temperature and was terminated with the addition of 25 μL of Detection Buffer (36 μg/mL diaphorase, […]) to 50 µL of the reaction solution. […] The data were imported into GraphPad Prism 4.1 (GraphPad Inc.; La Jolla; CA, USA), and the IC50 values were calculated with a standard dose–response curve fitting (Figure S3).

IDH1 R132C = target: T2, IDH1 R132C (Homo sapiens, UniProt O75874, R132C); experiment: Mutant IDH1 enzyme assay (diaphorase/resazurin), IDH1 R132C; format: biochemical; conditions: mean ± SD of at least three determinations
T2 construct: purchased ActiveMotif ACM-31713
T2 sequence (O75874 whole entry R132C): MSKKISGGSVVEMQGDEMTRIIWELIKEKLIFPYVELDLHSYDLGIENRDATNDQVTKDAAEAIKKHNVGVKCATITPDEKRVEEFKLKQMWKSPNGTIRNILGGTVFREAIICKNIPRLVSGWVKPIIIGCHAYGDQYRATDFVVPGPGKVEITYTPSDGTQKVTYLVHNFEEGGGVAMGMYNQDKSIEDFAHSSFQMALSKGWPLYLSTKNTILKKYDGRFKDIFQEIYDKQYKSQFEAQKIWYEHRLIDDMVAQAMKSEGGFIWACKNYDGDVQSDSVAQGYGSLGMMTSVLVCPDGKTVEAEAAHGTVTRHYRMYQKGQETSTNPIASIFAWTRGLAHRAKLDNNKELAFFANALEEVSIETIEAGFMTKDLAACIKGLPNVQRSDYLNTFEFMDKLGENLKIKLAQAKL
Experimental: as §1

wt IDH2 = target: T3, wt IDH2 (Homo sapiens, UniProt P48735); experiment: wt IDH enzyme assay, wt IDH2; format: biochemical; conditions: mean of at least three determinations
T3 construct: purchased BPS Bioscience
T3 sequence (P48735 40-452): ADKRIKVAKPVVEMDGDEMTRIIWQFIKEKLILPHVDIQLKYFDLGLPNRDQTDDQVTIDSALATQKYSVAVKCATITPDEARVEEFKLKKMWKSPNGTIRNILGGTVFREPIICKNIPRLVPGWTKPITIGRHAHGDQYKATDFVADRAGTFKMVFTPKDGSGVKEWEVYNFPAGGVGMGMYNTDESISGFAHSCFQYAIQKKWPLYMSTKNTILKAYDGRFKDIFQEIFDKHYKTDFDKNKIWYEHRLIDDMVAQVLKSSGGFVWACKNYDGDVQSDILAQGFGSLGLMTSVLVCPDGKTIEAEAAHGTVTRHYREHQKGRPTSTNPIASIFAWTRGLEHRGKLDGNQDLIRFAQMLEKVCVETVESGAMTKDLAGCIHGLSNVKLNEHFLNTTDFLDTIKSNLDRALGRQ
Experimental: (§2) wt IDH enzyme assay is a modified version of the assay used for mIDH1. With the conversion of isocitrate to α-KG, this enzyme stoichiometrically converts NADP to NADPH. The produced NADPH, which directly couples to the diaphorase/resazurin system and the resorufin production, can be measured. The protocols for the determination of inhibition of both wt IDH1 and wt IDH2 were conducted as described by Wang et al.. The wt IDH1 (ab113858) was purchased from abcam (Cambridge, UK), and the wt IDH2, from BPS Bioscience (San Diego, CA, USA).
Assays for wt IDH2 were conducted in 50 µL buffer (20 mM TRIS buffer (pH = 7.5), 150 mM NaCl, 10 mM MgCl2, 0.05% BSA, and 4 mM β-mercaptoethanol) containing 50 µM NADP, 70 µM D/L-isocitrate, and 0.05 µg/mL wt IDH2 enzyme (reaction time 1 h at RT). For inhibition assays, triplicate samples of the compounds in the concentration range from 10^−5 to 10^−10 M were incubated with the wt IDH2 and NADP for 1 h before addition of D/L-isocitrate to initiate the reaction together with the direct detection system comprising 20 µg/mL diaphorase and 4 µM resazurin. The reaction was stopped by addition of 5 μL 10% SDS and read as described above. The data were imported into GraphPad Prism, and the IC50 values were calculated with a standard dose−response curve fitting.

wt IDH1 = target: T4, wt IDH1 (Homo sapiens, UniProt O75874); experiment: wt IDH enzyme assay, wt IDH1; format: biochemical; conditions: mean of at least three determinations
T4 construct: purchased abcam ab113858
T4 sequence (O75874 whole entry): as the sequence (O75874 whole entry R132C) above, with C132R counted along it
Experimental: as §2
Briefly, wt IDH1 assays were conducted in 50 µL buffer (20 mM TRIS buffer (pH = 7.5), 150 mM NaCl, 10 mM MgCl2, 0.05% BSA, and 4 mM β-mercaptoethanol) containing 50 µM NADP, 70 µM D/L-isocitrate, and 0.04 µg/mL wt IDH1 enzyme (reaction time 1 h at RT). For inhibition assays, triplicate samples of the compounds in the concentration range from 10^−5 to 10^−10 M were incubated with the wt IDH1 for 1 h before addition of D/L-isocitrate and NADP to initiate the reaction together with the direct detection system comprising 20 µg/mL diaphorase and 4 µM resazurin.

[1] = Stability of radiotracer at room temperature in ethanol, saline or DPBS (radio-HPLC); format: physicochemical
Experimental: To a solution of organotin precursor (S)-15 in methanol (50 µL, 1 mg/mL) were successively added [^125I]NaI (10-50 µL, 2.1–15.3 MBq), glacial acetic acid (2.5 µL), and a solution of CAT trihydrate (5 µL, 1 mg/mL). The reaction vial was sealed and stirred at room temperature for 5 min before addition of a solution of Na2S2O5 in deionised water (5 µL, 1 mg/mL). The reaction mixture was purified by semipreparative RP-HPLC. The collected fraction was further diluted with deionised water (10 mL) and passed through a Sep-Pak® Plus Light cartridge (beforehand conditioned successively with 10 mL of deionised water, 10 mL of methanol, and 10 mL of deionised water). The cartridge was washed with deionised water (2 mL) and dried with air before elution of the radioiodinated tracer (S)-[^125I]2 with ethanol (500 µL). The radiotracer was finally formulated in saline or DPBS (pH 7.4) to reach an ethanol content of ca. 5% for stability studies.
The aqueous solution of [^18F]F^− in [^18O]H2O was passed through an anion exchange resin (Sep-Pak® Light Accell Plus QMA carbonate cartridge) preconditioned with 10 mL of ethanol, 10 mL of an aqueous solution of lithium trifluoromethanesulfonate (90 mg/mL), and 10 mL of deionised water. Then, a solution of potassium carbonate (50 µg) and lithium trifluoromethanesulfonate (10 mg) in water (550 µL) was passed through the cartridge to elute the radioactivity to the reactor before addition of anhydrous ACN (1 mL). In such conditions, more than 97% of the radioactivity was usually recovered from the cartridge. The solution was dried by azeotropic distillation under reduced pressure and He flow at 100 °C for 12 min. After cooling to 25 °C, anhydrous DMA (2 mL) was added to the reactor. Then, 200 µL of the resulting solution (40–245 MBq, n = 10) was transferred in a glass vial equipped with a magnetic stirrer before addition of a solution of tetrakis(pyridine)copper(II) triflate (Cu(OTf)2(py)4, 14 mg, 20.6 µmol) in anhydrous DMA (250 µL) and a solution of the tin precursor (S)-15 (6.1 mg, 10.0 µmol) in anhydrous DMA (100 µL). The reaction mixture was stirred at 110 °C for 10 min. After cooling to 25 °C, deionised water (25 mL) was added, and the reaction mixture was passed through a Sep-Pak® C18 Plus Light cartridge preconditioned with 10 mL of deionised water, 10 mL of methanol, and 10 mL of deionised water. The cartridge was washed with deionised water (2 mL) and flushed with air before elution of the desired ^18F-labelled radiotracer with ACN (500 µL). For isolation of the radiotracer, the eluate was subjected to semipreparative RP-HPLC. The collected fraction was diluted with deionised water (25 mL) and passed through a Sep-Pak® C18 Plus Light cartridge preconditioned with 10 mL of deionised water, 10 mL of methanol, and 10 mL of deionised water. The cartridge was washed with deionised water (2 mL) and flushed with air before elution of the final (S)-[^18F]3 radiotracer with ethanol (500–600 µL). The radiotracer was finally formulated in saline or DPBS (pH 7.4) to reach an ethanol content of ca. 5% for stability studies.
(§3) Figure 7 Radioactivity-HPLC chromatograms of the radiotracer (S)-[^125I]2 incubated, for 1, 2, and 3 h post formulation, at room temperature in ethanol, NaCl 0.9% containing 5% ethanol, and DPBS (pH 7.4) containing 5% ethanol, as well as in a mixture of DPBS and mouse serum at 37 °C.
(§4) Figure 8 Radioactivity-HPLC chromatograms of the radiotracer (S)-[^18F]3 incubated, for 0, 1, and 2 h post formulation, at room temperature in ethanol, NaCl 0.9% containing 5% ethanol, and DPBS (pH 7.4) containing 5% ethanol, as well as in a mixture of DPBS and mouse serum at 37 °C.

[2] = Stability of radiotracer in mouse serum at 37 °C (radio-HPLC); format: in vitro ADME
Experimental: as §3, §4

mIDH1 = conditions: cited from earlier work
[3] = phenyl-glycine scaffold, mixtures of stereoisomers, read-out: IC50 for mIDH1
[4] = butyl-phenyl sulfonamides, read-out: IC50

T1 sequence (O75874 whole entry R132H): as the sequence (O75874 whole entry R132C) above, with C132H counted along it

IC50 (IDH1 R132H)	IC50 (IDH1 R132C)	IC50 (wt IDH2)	IC50 (wt IDH1)	Compound	IC50 (mIDH1; [3])	also measured
0.323 ± 0.083 µM	> 10 µM	> 10 µM	> 10 µM	C[C@@H](Nc1ccc(C#N)n(C)c1=O)c1cc2cc(I)ccc2[nH]c1=O [(R)-2, (R)-5-{[1-(6-iodo-2-oxo-1,2-dihydroquinolin-3-yl)ethyl]-amino}-1-methyl-6-oxo-1,6-dihydropyridine-2-carbonitrile]		
0.698 ± 0.145 µM	> 10 µM	> 10 µM	> 10 µM	C[C@@H](Nc1ccc(C#N)n(C)c1=O)c1cc2cc(F)ccc2[nH]c1=O [(R)-3, (R)-5-{[1-(6-fluoro-2-oxo-1,2-dihydroquinolin-3-yl)ethyl]-amino}-1-methyl-6-oxo-1,6-dihydropyridine-2-carbonitrile]		
0.00523 ± 0.00075 µM	0.16 ± 0.024 µM	> 10 µM	> 10 µM	C[C@H](Nc1ccc(C#N)n(C)c1=O)c1cc2cc(I)ccc2[nH]c1=O [(S)-2, (S)-5-{[1-(6-iodo-2-oxo-1,2-dihydroquinolin-3-yl)ethyl]-amino}-1-methyl-6-oxo-1,6-dihydropyridine-2-carbonitrile]		
0.0227 ± 0.0052 µM	0.579 ± 0.11 µM	> 10 µM	> 10 µM	C[C@H](Nc1ccc(C#N)n(C)c1=O)c1cc2cc(F)ccc2[nH]c1=O [(S)-3, (S)-5-{[1-(6-fluoro-2-oxo-1,2-dihydroquinolin-3-yl)ethyl]-amino}-1-methyl-6-oxo-1,6-dihydropyridine-2-carbonitrile]		decrease of inhibitory potency compared with iodinated compound (S)-2 (IDH1 R132H; IDH1 R132H): fourfold
				C[C@H](Nc1ccc(C#N)n(C)c1=O)c1cc2cc([18F])ccc2[nH]c1=O [(S)-[^18F]3]		RCP (stability) ([1]; DPBS (pH 7.4) containing 5% ethanol, over 2 h): > 99%; RCP (stability) ([1]; NaCl 0.9% containing 5% ethanol, over 2 h): > 99%; RCP (stability) ([1]; ethanolic solution from final C18 SPE cartridge, over 2 h): > 99%; RCP (stability) ([2]; 37 °C, over 2 h): > 99%
				C[C@H](Nc1ccc(C#N)n(C)c1=O)c1cc2cc([125I])ccc2[nH]c1=O [(S)-[^125I]2]		RCP (stability) ([1]; DPBS pH 7.4, room temperature, 3 h post formulation): 97.4%; RCP (stability) ([1]; ethanolic solution eluted after C18 SPE cartridge, room temperature, 3 h post formulation): 98.0%; RCP (stability) ([1]; formulation medium (saline, ca. 5% ethanol), room temperature, 3 h post formulation): 97.2%; RCP (stability) ([2]; 3 h at 37 °C): 94.3%
				Cc1ccccc1C(C(=O)NC1CCCCC1)N(C(=O)Cn1ccnc1C)c1cccc([18F])c1 (stereo not shown) [III]	< 0.05 µM	
				Cc1ccccc1C(C(=O)NC1CCCCC1)N(C(=O)n1cnc2ccccc21)c1cccc([18F])c1 (stereo not shown) [II]	< 0.05 µM	
				Cc1ccccc1C(C(=O)NC1CCCCC1)N(C(=O)Cn1ccnc1C)c1cccc([125I])c1 (stereo not shown) [IV]	< 0.05 µM	
				N#Cc1ccnc(N2C(=O)CCC2C(=O)N(c2cncc([18F])c2)C(C(=O)NC2CC(F)(F)C2)c2ccccc2Cl)c1 (stereo not shown) [I]	< 0.05 µM	
				CCCCc1ccc(NS(=O)(=O)c2ccc(C)c(C(=O)N3CCN(c4ccccc4OCC[18F])CC3)c2)cc1 [VII]		IC50 (mIDH1; [4]): 2.3 µM
				CCCCc1ccc(NS(=O)(=O)c2ccc(C)c(C(=O)N3CCN(c4ccccc4[125I])CC3)c2)cc1 [VI]		IC50 (mIDH1; [4]): 1.7 µM

From publication PMC9228733, “Novel Radioiodinated and Radiofluorinated Analogues of FT-2102 for SPECT or PET Imaging of mIDH1 Mutant Tumours” (Molecules, 2022)
